# From patent US10131652B2, “Pyrimidinyloxy benzene derivatives as herbicides” (E. I. DU PONT DE NEMOURS AND COMPANY, priority 2014, dated 2018)
# Experiments:
# Type in all cases: in vivo
# [1] = test system: barnyardgrass (Echinochloa crus-galli); assay: Test B pre-/postemergence plant response
# Method in brief: (§1)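 Ratings reflect visual injury versus untreated controls, from 0 for no effect to 100 for complete control, assessed roughly 10 days after treatment. Formulation: non-phytotoxic solvent mix with surfactant; pre- and postemergence sprays on plants grown in loam soil and sand.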
# corn (Zea mays) = assay: Test B pre-/postemergence plant response
# Method in brief: as §1
# [2] = test system: giant foxtail (Setaria faberii); assay: Test B pre-/postemergence plant response
# Method in brief: as §1
# [3] = test system: pigweed (Amaranthus retroflexus); assay: Test B pre-/postemergence plant response
# Method in brief: as §1
# [4] = test system: wheat (Triticum aestivum); assay: Test B pre-/postemergence plant response
# Method in brief: as §1
# [5] = test system: barnyardgrass (Echinochloa crus-galli); assay: Test C flooded paddy test plant response; conditions: Flood, 250 g ai/ha; scale of 0 to 100 where 0 is no effect and 100 is complete control; 13 to 15 days
# Method in brief: (§2)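 Plants grown to the 2-leaf stage; pots flooded to 3 cm above soil, test compounds applied directly to paddy water, depth maintained throughout. Greenhouse for 13 to 15 days, then visual rating versus controls on a 0–100 scale (0 no effect, 100 complete control).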
# [6] = test system: ducksalad (Heteranthera limosa); assay: Test C flooded paddy test plant response; conditions: Flood, 250 g ai/ha; scale of 0 to 100 where 0 is no effect and 100 is complete control; 13 to 15 days
# Method in brief: as §2
# rice (Oryza sativa) = assay: Test C flooded paddy test plant response; conditions: Flood, 250 g ai/ha; scale of 0 to 100 where 0 is no effect and 100 is complete control; 13 to 15 days
# Method in brief: as §2
# [7] = test system: small-flower umbrella sedge (Cyperus difformis); assay: Test C flooded paddy test plant response; conditions: Flood, 250 g ai/ha; scale of 0 to 100 where 0 is no effect and 100 is complete control; 13 to 15 days
# Method in brief: as §2
# [8] = test system: johnsongrass (Sorghum halepense); assay: Test D pre-/postemergence plant response
# Method in brief: (§3)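 Pre-/post-emergence greenhouse test. Pre: seeded loam+sand, sprayed same day. Post: 1–4 leaf plants (2–18 cm), peat/vermiculite mix. Formulation: non-phytotoxic solvent + surfactant. Scored visually d13–15, 0–100 vs control.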
# [9] = test system: lambsquarters (Chenopodium album); assay: Test D pre-/postemergence plant response
# Method in brief: as §3
# [10] = test system: morningglory (Ipomoea coccinea); assay: Test D pre-/postemergence plant response
# Method in brief: as §3
# soybean (Glycine max) = assay: Test D pre-/postemergence plant response
# Method in brief: as §3
# [11] = test system: velvetleaf (Abutilon theophrasti); assay: Test D pre-/postemergence plant response
# Method in brief: as §3
# [12] = test system: waterhemp (common waterhemp, Amaranthus rudis); assay: Test D pre-/postemergence plant response
# Method in brief: as §3
# [13] = test system: winter wheat (Triticum aestivum); assay: Test D pre-/postemergence plant response
# Method in brief: as §3
# [14] = 125 g ai/ha, postemergence, 0 to 100 scale, 0 no effect, 100 complete control
# [15] = Postemergence, 500 g ai/ha, 0 to 100 scale (0 no effect, 100 complete control)
# [16] = Preemergence, 125 g ai/ha, 0 to 100 scale (0 no effect, 100 complete control)
# [17] = Preemergence, 500 g ai/ha, 0 to 100 scale where 0 is no effect and 100 is complete control
# [18] = Postemergence, 31 g ai/ha, scale 0 to 100 (0 no effect, 100 complete control)
# [19] = Postemergence, 62 g ai/ha, scale 0 to 100, 0 no effect, 100 complete control
# [20] = Postemergence, 125 g ai/ha, scale 0 to 100, 0 no effect, 100 complete control
# [21] = Preemergence, 16 g ai/ha, scale 0 to 100 (0 no effect, 100 complete control)
# [22] = Preemergence, 31 g ai/ha, scale 0 to 100 (0 no effect, 100 complete control)
# [23] = Preemergence, 62 g ai/ha, scale 0 to 100 (0 no effect, 100 complete control)
smiles,measurement,setting,value
N#Cc1cccc(Oc2ncc(Cl)cn2)c1-c1cc(C(F)F)on1 [Compound 180],"Plant response rating, Barnyardgrass",[1]; [14],50
same,"Plant response rating, Barnyardgrass",[1]; [15],90
same,Barnyardgrass plant response rating,[1]; [16],20
same,"Plant response rating, Barnyardgrass",[1]; [17],80
same,"Plant response rating, Corn",corn (Zea mays); [14],20
same,"Plant response rating, Corn",corn (Zea mays); [15],70
same,"Plant response rating, Foxtail, Giant",[2]; [14],80
same,"Plant response rating, Foxtail, Giant",[2]; [15],100
same,"Foxtail, Giant plant response rating",[2]; [16],90
same,"Plant response rating, Foxtail, Giant",[2]; [17],100
same,"Plant response rating, Pigweed",[3]; [14],100
same,"Plant response rating, Pigweed",[3]; [15],100
same,Pigweed plant response rating,[3]; [16],100
same,"Plant response rating, Pigweed",[3]; [17],100
same,"Plant response rating, Wheat",[4]; [14],60
same,"Plant response rating, Wheat",[4]; [15],90
same,Barnyardgrass plant response rating,[5],0
same,Ducksalad plant response rating,[6],90
same,Rice plant response rating,rice (Oryza sativa),0
same,"Sedge, Umbrella plant response rating",[7],80
same,"Plant response rating (scale 0 to 100), Johnsongrass","[8]; Postemergence, 16 g ai/ha",0
same,Johnsongrass plant response rating,[8]; [18],0
same,"Plant response rating, Johnsongrass",[8]; [19],5
same,"Plant response rating, Johnsongrass",[8]; [20],5
same,"Plant response rating (scale 0 to 100), Johnsongrass","[8]; Preemergence, 125 g ai/ha",90
same,"Plant response rating, Johnsongrass",[8]; [21],0
same,"Plant response rating, Johnsongrass",[8]; [22],10
same,"Plant response rating, Johnsongrass",[8]; [23],60
same,"Plant response rating (scale 0 to 100), Lambsquarters","[9]; Postemergence, 16 g ai/ha",70
same,Lambsquarters plant response rating,[9]; [18],80
same,Lambsquarters plant response rating,[9]; [19],98
same,"Plant response rating, Lambsquarters",[9]; [20],98
same,"Plant response rating (scale 0 to 100), Lambsquarters","[9]; Preemergence, 125 g ai/ha",90
same,"Plant response rating, Lambsquarters",[9]; [21],95
same,"Plant response rating, Lambsquarters",[9]; [22],100
same,"Plant response rating, Lambsquarters",[9]; [23],100
same,"Plant response rating (scale 0 to 100), Morningglory","[10]; Postemergence, 16 g ai/ha",40
same,Morningglory plant response rating,[10]; [18],55
same,Morningglory plant response rating,[10]; [19],90
same,"Plant response rating, Morningglory",[10]; [20],90
same,"Plant response rating (scale 0 to 100), Morningglory","[10]; Preemergence, 125 g ai/ha",100
same,"Plant response rating, Morningglory",[10]; [21],0
same,"Plant response rating, Morningglory",[10]; [22],0
same,"Plant response rating, Morningglory",[10]; [23],5
same,"Plant response rating (scale 0 to 100), Soybean","soybean (Glycine max); Postemergence, 16 g ai/ha",45
same,Soybean plant response rating,soybean (Glycine max); [18],60
same,Soybean plant response rating,soybean (Glycine max); [19],70
same,"Plant response rating, Soybean",soybean (Glycine max); [20],85
same,"Plant response rating (scale 0 to 100), Soybean","soybean (Glycine max); Preemergence, 125 g ai/ha",80
same,"Plant response rating, Soybean",soybean (Glycine max); [21],5
same,"Plant response rating, Soybean",soybean (Glycine max); [22],25
same,"Plant response rating, Soybean",soybean (Glycine max); [23],60
same,"Plant response rating (scale 0 to 100), Velvetleaf","[11]; Postemergence, 16 g ai/ha",45
same,Velvetleaf plant response rating,[11]; [18],40
same,Velvetleaf plant response rating,[11]; [19],35
same,"Plant response rating, Velvetleaf",[11]; [20],55
same,"Plant response rating (scale 0 to 100), Velvetleaf","[11]; Preemergence, 125 g ai/ha",100
same,"Plant response rating, Velvetleaf",[11]; [21],75
same,"Plant response rating, Velvetleaf",[11]; [22],85
same,"Plant response rating, Velvetleaf",[11]; [23],90
same,"Plant response rating (scale 0 to 100), Waterhemp","[12]; Postemergence, 16 g ai/ha",40
same,Waterhemp plant response rating,[12]; [18],75
same,Waterhemp plant response rating,[12]; [19],90
same,"Plant response rating, Waterhemp",[12]; [20],98
same,"Plant response rating (scale 0 to 100), Waterhemp","[12]; Preemergence, 125 g ai/ha",100
same,"Plant response rating, Waterhemp",[12]; [21],40
same,"Plant response rating, Waterhemp",[12]; [22],95
same,"Plant response rating, Waterhemp",[12]; [23],95
same,"Plant response rating (scale 0 to 100), Wheat","[13]; Postemergence, 16 g ai/ha",5
same,Wheat plant response rating,[13]; [18],5
same,Wheat plant response rating,[13]; [19],15
same,"Plant response rating, Wheat",[13]; [20],30
same,"Plant response rating (scale 0 to 100), Wheat","[13]; Preemergence, 125 g ai/ha",30
same,"Plant response rating, Wheat",[13]; [21],0
same,"Plant response rating, Wheat",[13]; [22],0
same,"Plant response rating, Wheat",[13]; [23],0
